# Test results from ChEMBL document CHEMBL1201862, “PubChem BioAssay data set” (2004).
# Active and inactive are the calls of the source.
# How the values were obtained:
# [1] = cells
# [2] = viability loss in HepG2 liver cells – cell-based, ATP luminescence, cherry-pick, set 6, cytotoxicity control, dose response (AID 1053125); type: functional
# [3] = molecular target: T1, DNA repair protein RAD52 homolog (Homo sapiens, UniProt P43351); type: functional, biochemical
# T1 sequence (P43351 whole entry): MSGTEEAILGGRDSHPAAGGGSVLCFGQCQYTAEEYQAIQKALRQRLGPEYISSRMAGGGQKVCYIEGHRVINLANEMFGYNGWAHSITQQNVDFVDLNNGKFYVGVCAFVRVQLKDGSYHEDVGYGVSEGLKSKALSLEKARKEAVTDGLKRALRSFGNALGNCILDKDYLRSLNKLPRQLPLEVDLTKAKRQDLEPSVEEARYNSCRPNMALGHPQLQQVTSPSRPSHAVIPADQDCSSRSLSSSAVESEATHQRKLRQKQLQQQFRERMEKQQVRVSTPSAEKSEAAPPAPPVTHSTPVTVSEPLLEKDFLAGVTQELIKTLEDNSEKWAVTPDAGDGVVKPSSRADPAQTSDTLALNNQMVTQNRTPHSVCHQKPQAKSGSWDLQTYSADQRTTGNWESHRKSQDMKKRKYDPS
# [4] = molecular target: T2, RNA-binding protein pos-1 (Caenorhabditis elegans, UniProt G5EF15); test: disruptors of C. elegans POS-1 RNA interaction – biochemical, fluorescence polarization, dose response (AID 1964);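 note: purified POS-1 fused to maltose binding protein made in E. coli; potency of compounds blocking POS-1 binding to fluorescent RNA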
# T2 sequence (G5EF15 whole entry): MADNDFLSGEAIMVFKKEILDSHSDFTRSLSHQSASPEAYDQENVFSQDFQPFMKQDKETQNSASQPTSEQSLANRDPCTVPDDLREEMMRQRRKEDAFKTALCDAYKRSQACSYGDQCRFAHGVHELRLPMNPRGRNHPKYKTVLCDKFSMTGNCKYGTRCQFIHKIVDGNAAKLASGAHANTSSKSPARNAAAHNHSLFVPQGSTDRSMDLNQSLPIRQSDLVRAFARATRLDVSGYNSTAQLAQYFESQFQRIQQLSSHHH
# [5] = molecular target: Kallikrein-7 (Homo sapiens, UniProt P49862); test: Fluorescence Intensity-based biochemical primary high throughput dose response assay to identify activators of kallikrein-7 (K7) zymogen.
# [6] = molecular target: T3, Zinc finger protein mex-5 (Caenorhabditis elegans, UniProt Q9XUB2); test: potency of MEX-5 RNA-binding blockers – biochemical, C. elegans, fluorescence polarization, dose response (AID 1960)
# T3 sequence (Q9XUB2 whole entry): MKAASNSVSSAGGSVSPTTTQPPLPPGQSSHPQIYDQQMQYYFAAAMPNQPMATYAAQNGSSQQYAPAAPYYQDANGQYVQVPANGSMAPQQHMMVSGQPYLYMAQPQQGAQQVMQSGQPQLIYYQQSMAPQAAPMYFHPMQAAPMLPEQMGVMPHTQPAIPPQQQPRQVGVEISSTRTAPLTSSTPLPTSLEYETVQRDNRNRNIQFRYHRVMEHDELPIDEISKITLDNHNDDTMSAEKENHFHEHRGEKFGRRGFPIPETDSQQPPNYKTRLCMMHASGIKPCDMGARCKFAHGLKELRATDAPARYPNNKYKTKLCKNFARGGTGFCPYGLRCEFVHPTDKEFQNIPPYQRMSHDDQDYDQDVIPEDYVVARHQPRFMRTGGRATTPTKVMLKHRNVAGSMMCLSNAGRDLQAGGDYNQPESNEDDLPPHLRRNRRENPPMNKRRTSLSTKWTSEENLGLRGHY
# [7] = optical artefact potency, substrate without enzyme – biochemical, fluorescence intensity, triplicate, artefact control for kallikrein-7 zymogen activator project, dose response (AID 720493)
# [8] = viability loss in MITF-independent A375 cells – cell-based, CellTiter-Glo luminescence, dry powder, set 2, counter-screen for MITF inhibitor project, dose response (AID 624489); type: functional; conditions: A-375;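 note: actives are compounds lowering A375 viability meaning general cytotoxicity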
# [9] = cytotoxicity in MITF-independent A375 cells – cell-based, CellTiter-Glo luminescence, dry powder, set 4, counter-screen for MITF inhibitor project, dose response (AID 624364); type: functional; conditions: A-375;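 note: A375 melanoma cells are MITF independent so this is a counter screen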
# [10] = molecular target: T4, High affinity choline transporter 1 (Homo sapiens, UniProt Q9GZV3); test: inhibition of SLC5A7-mediated choline transport – cell-based, HEK-293 hCHT, [3H]-choline uptake, dose response (AID 652177); type: functional
# T4 sequence (Q9GZV3 whole entry): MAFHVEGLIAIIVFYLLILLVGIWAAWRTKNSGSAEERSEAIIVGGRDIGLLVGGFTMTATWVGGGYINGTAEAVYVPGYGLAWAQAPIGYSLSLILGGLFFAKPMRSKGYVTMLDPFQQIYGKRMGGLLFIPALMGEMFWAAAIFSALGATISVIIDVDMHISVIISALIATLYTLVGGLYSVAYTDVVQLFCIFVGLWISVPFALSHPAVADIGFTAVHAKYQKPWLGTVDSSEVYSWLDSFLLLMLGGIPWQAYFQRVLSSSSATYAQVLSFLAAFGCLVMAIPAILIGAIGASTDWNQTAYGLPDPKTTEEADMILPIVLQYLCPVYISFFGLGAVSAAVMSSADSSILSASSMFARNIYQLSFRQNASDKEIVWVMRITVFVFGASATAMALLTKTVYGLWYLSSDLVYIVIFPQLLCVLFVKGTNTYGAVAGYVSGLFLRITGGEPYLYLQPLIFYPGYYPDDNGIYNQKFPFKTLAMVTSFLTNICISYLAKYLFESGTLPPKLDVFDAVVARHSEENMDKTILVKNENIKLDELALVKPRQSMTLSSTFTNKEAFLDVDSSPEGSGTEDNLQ
# [11] = molecular target: T5, Methionyl-tRNA synthetase, putative (Trypanosoma brucei brucei, UniProt Q38C91); type: functional, Trypanosoma brucei brucei strain 927/4 GUTat10.1
# T5 sequence (Q38C91 whole entry): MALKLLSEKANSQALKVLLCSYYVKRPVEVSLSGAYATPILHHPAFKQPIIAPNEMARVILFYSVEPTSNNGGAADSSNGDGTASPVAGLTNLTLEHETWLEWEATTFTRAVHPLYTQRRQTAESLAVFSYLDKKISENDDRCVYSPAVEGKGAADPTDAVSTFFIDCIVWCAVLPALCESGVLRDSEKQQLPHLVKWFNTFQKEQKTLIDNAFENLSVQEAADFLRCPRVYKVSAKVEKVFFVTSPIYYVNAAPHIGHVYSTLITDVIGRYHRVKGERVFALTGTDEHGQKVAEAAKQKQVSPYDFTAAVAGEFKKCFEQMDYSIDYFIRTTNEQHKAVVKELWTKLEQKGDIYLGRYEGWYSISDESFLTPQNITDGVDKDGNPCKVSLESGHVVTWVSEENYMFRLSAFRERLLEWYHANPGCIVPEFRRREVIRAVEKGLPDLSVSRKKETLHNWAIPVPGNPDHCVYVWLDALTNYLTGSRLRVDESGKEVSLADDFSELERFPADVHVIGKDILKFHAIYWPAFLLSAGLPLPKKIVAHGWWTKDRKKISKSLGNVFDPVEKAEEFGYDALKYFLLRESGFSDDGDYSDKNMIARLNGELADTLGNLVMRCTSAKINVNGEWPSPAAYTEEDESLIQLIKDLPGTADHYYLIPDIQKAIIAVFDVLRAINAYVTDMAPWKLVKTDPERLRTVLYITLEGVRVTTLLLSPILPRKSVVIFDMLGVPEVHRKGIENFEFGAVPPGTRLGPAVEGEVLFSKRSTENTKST
# [12] = Counterscreen for inhibitors of Trypanosoma brucei methionyl tRNA synthetase (MetRS): Luminescence-based cell-based high throughput dose response assay to identify compounds that are cytotoxic to Jurkat human T lymphocyte cells.; type: functional
# [13] = Late stage counterscreen for inhibitors of Trypanosoma brucei methionyl tRNA synthetase (MetRS): Luminescence-based cell-based high throughput dose response assay to identify compounds that are cytotoxic to Jurkat human T lymphocyte cells.; type: functional
# [14] = molecular target: T5, Methionyl-tRNA synthetase, putative; type: functional, Trypanosoma brucei brucei strain 927/4 GUTat10.1; remark: listed apart in the source
# [15] = general cell-killing toxicity readout – plate reader, dry powder samples, cytotoxicity control for PAX8 inhibitor project, dose response (AID 743021); type: functional, cell-based
# [16] = molecular target: T6, Hepatocyte nuclear factor 4-alpha (Homo sapiens, UniProt P41235); type: functional, cell-based;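 note: biochemical luminescence-based dose-response counterscreen measuring inhibition of HNF4 dimerization, run alongside a screen for blockers of ABHD5–perilipin-5 interaction; split luciferase complementation of HNF4 fusion proteins in cell lysate measuring dimerization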
# T6 sequence (P41235 whole entry): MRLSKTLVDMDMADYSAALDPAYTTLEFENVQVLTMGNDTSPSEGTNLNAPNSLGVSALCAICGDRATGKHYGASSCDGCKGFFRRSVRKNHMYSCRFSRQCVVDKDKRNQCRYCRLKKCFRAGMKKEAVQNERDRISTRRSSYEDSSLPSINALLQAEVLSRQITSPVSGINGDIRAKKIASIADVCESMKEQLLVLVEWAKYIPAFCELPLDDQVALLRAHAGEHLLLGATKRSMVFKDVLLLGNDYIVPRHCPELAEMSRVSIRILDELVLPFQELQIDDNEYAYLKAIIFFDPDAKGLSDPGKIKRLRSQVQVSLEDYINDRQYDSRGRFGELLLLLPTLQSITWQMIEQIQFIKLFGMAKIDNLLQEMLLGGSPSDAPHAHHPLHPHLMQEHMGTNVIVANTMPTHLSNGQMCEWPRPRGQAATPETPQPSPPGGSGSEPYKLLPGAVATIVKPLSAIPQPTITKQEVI
# [17] = reduced cellular PGC1a acetyl-lysine signal – cell-based, cherry-picked samples, dose response (AID 720514); type: functional;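 note: potency may reflect raised or lowered acetylation signal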
# [18] = molecular target: Paired box protein Pax-8 (Homo sapiens, UniProt Q06710); test: PAX8 transcriptional activity inhibition in RMG-I – RMG-I cells, luciferase, cherry-pick, dose response (AID 687027); type: functional, cell-based;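 note: luciferase reporter driven by Pax8 target thyroperoxidase promoter measured by SteadyGlo luminescence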
# [19] = toxicity to human hepatoma HepG2 cells – cell-based, cherry-picked samples, cytotoxicity control, dose response (AID 1159577); type: functional
# [20] = blockers of FN fibrillogenesis by fibroblasts – AH1F cells, Alexa488-FN fluorescence, cherry-picks, dose response (AID 1035475); type: functional, cell-based
# [21] = viability loss in HepG2 hepatoma cells – cell-based, cherry-picks, set 5, cytotoxicity control, dose response (AID 1053118); type: functional
# [22] = P. falciparum Dd2 growth inhibitors, dose response, SYBR Green, cherry-picked samples (AID 1159567); type: functional, cell-based
# [23] = activation of miR-122 Renilla sensor silencing – cell-based, Huh7 psiCHECK-miR122, Renilla luciferase, cherry-picked, dose response (AID 651956); type: functional;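 note: huh7 hepatoma cells stably carrying a psiCHECK-2 miR-122 sensor plasmid; renilla luciferase signal reporting endogenous miR-122 activity after 48 h compound exposure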
# [24] = viability loss in HEK293 kidney cells – cell-based, cherry-picks, set 5, cytotoxicity control, dose response (AID 1053117); type: functional
# [25] = general mammalian cell viability loss – inhibitor set, cherry-pick, set 2, cytotoxicity control for miR-122 modulator project, dose response (AID 720697); type: functional, cell-based
# [26] = molecular target: 1-phosphatidylinositol 4,5-bisphosphate phosphodiesterase beta-3 (Homo sapiens, UniProt Q01970); test: Fluorescence-based biochemical high throughput dose response assay to identify inhibitors of phospholipase C isozymes (PLC-B3).
# [27] = molecular target: 1-phosphatidylinositol 4,5-bisphosphate phosphodiesterase gamma-1 (Homo sapiens, UniProt P19174); test: Counterscreen for inhibitors of phospholipase C isozymes (PLC-B3): Fluorescence-based biochemical high throughput dose response assay to identify inhibitors of phospholipase C isozymes (PLC-gamma1).
# [28] = viability loss in HEK293 cells – cell-based, plate reader, cherry-picked samples, cytotoxicity control, dose response (AID 743446); type: functional
# [29] = blockers of bursicon-stimulated LGR2 cAMP reporter – cell-based, HEK293, CRE-luciferase reporter, cherry pick, set 2, dose response (AID 743343); type: functional;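 note: transfected cells were stimulated with diluted bursicon conditioned medium after compound addition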
# [30] = A549 cell cytotoxicity, dose response, cytotoxicity control, plate reader, cherry-pick, antagonist series (AID 743412); type: functional, cell-based
# [31] = blockade of melanocortin 4 receptor signaling – cell-based, plate reader, cherry pick, counter-screen for LGR2 antagonist project, dose response (AID 743444); type: functional;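 note: transfected HEK 293 cells stimulated with alpha-MSH peptide; potency of inhibitors of the alpha-MSH evoked signal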
# [32] = cells; remark: listed apart in the source
# [33] = molecular target: Major prion protein (Homo sapiens, UniProt P04156); type: functional, cell-based
structure (smiles),measurement,setting,value
Cc1cccn2c(=O)c3cc(C(N)=S)c(=N)n(CCCN4CCOCC4)c3nc12,AC50,[1],5.15 µM (active)
same,AC50,[2],> 52 µM (inactive)
same,AC50,[3],3.43 µM (active)
Cc1ccc(/C=C2\Oc3c(ccc(O)c3CN3CCN(C)CC3)C2=O)cc1,EC50,[4],43.7 µM (active)
same,EC50,[5],12.5 µM (inactive)
same,EC50,[6],153 µM (active)
same,EC50,[7],> 7.73 µM (active)
O=C1C(NS(=O)(=O)c2cccs2)=C(N2CCOCC2)C(=O)c2ccccc21,AC50,[8],> 70 µM (inactive)
same,AC50,[9],> 70 µM (inactive)
COc1ccc(C(=O)NCCN2CCCC2)cc1OC1CCN(C(C)C)CC1,IC50,[10],1.84 µM (active)
CN1CC(=O)N2C(c3cccc([N+](=O)[O-])c3)c3[nH]c4ccccc4c3C[C@H]2C1=O (stereo partly drawn),IC50,[11],0.798 µM (active)
same,IC50,[12],83.3 µM (inactive)
same,IC50,[13],> 83.3 µM (inactive)
same,IC50,[14],0.393 µM (active)
C#CCN(C[C@@H]1[C@@H](OC(=O)NCCCCCC)[C@@H](OC(=O)NCCCCCC)Cn2c(=O)ccc(=O)n21)S(=O)(=O)c1ccc(C)cc1,AC50,[15],38.3 µM (active)
same,IC50,[16],34.7 µM (inactive)
same,AC50,[17],4.88 µM (active)
same,AC50,[18],4.18 µM (active)
CO[C@H]1CN(C)C(=O)c2cc(NC(=O)Nc3ccc(Cl)c(Cl)c3)ccc2OC[C@H](C)NC[C@H]1C,AC50,[19],12.1 µM (active)
same,AC50,[20],> 70 µM (inactive)
same,AC50,[21],18.5 µM (active)
same,AC50,[22],10.4 µM (active)
same,AC50,[23],23.2 µM (active)
same,AC50,[24],26.6 µM (active)
same,AC50,[25],18.1 µM (active)
O=C(CCNc1cc(Cl)cc(Cl)c1)c1cccs1,IC50,[26],> 123 µM (inactive)
same,IC50,[27],> 123 µM (inactive)
N#C[C@@H]1[C@H](c2ccc(C#Cc3ccccc3F)cc2)[C@@H](CO)N1C(=O)C1CC1,AC50,[28],33.5 µM (active)
same,AC50,[29],5.15 µM (active)
same,AC50,[30],24.9 µM (active)
same,AC50,[31],5.44 µM (active)
CC(=O)Nc1ccc2nc(C)c(CC=C(Cl)Cl)c(O)c2c1,IC50,[32],> 138 µM (inactive)
same,IC50,[33],10.2 µM (inactive)
